Assay results as given in article PMC12113431, “Chartarlactams U-X: Novel Phenylspirodrimanes from a Marine Derived Fungus Stachybotrys sp. SZU-W23 with Anti-Inflammatory Activity Mediated by the NF-κB/ROS Signaling Pathways” (Marine Drugs, 2025).
pIC50: −log10 of the molar value. Where two headings read alike, the source gives them in different places. Values belong to the compound of their own block, whether it stands above or below them.

Assays:
RAW 264.7 cells = test: Cytotoxicity, CCK-8 cell viability assay; type: cell-based, mouse; conditions: for cytotoxicity (qualitative): tested at 3, 10 and 30 μM
Experimental: RAW 264.7 cells were seeded into 96-well plates at a density of 1.0 × 10^5 cells/well (100 μL/well) in complete DMEM (high-glucose DMEM supplemented with 10% FBS, 100 U/mL penicillin, and 100 μg/mL streptomycin) and allowed to adhere for 24 h at 37 °C under 5% CO2. Subsequently, serial dilutions of compounds (0.3–30 μM in DMSO, with the final DMSO concentration < 0.1%) were added to respective wells and incubated for 24 h. Cell viability was assessed using the CCK-8 assay (Dojindo Laboratories, Kumamoto, Japan): 10% (v/v) CCK-8 reagent was added to each well, followed by incubation for 30 min at 37 °C. The absorbance was measured at 450 nm with a reference wavelength of 650 nm using a microplate reader (BioTek Instruments, Winooski, VT, USA).

[1] = tested on: NO production in LPS-activated RAW264.7 murine macrophages; design: method as in doi:10.1039/C7RA09859F; conditions: read-out: IC50, inhibition of NO production; cited from earlier work
[2] = tested on: nitric oxide production in LPS-stimulated RAW 264.7 macrophages; test: Inhibition of NO production in LPS-stimulated RAW 264.7 macrophages (Griess reaction); type: cell-based, mouse; conditions: for pIC50: Mus musculus, read-out: IC50, inhibition of NO production; for NO production inhibition at 10 μM: test concentration of 10 μM; for NO production inhibition at 10 μM / NO-inhibitory effect: RAW 264.7, LPS; for NO-inhibitory effect: tested at 3 to 30 μM
Experimental: RAW 264.7 macrophages were seeded into 96-well plates at a density of 2.0 × 10^5 cells/well in complete DMEM and allowed to adhere for 2 h at 37 °C under 5% CO2. The cells were pretreated with compounds 1–15 (3–30 μM) for 2 h, followed by stimulation with ultrapure lipopolysaccharide (LPS; 100 ng/mL, from E. coli O111:B4, Sigma-Aldrich) for 24 h. NO production was assessed via the Griess reaction by quantifying nitrite (NO2^−) accumulation in culture supernatants.
Briefly, 50 μL of the cell-free supernatant from each well was mixed with 50 μL of 1% sulfanilamide (dissolved in 5% phosphoric acid; Griess Reagent A, Beyotime Biotechnology, Shanghai, China) and incubated for 5 min at room temperature. Subsequently, 50 μL of 0.1% N-1-naphthylethylenediamine dihydrochloride (Griess Reagent B, Beyotime Biotechnology) was added, followed by 5 min incubation in the dark. The absorbance was measured at 540 nm with a reference wavelength of 630 nm using a Synergy H1 microplate reader (BioTek Instruments, Winooski, VT, USA). Nitrite concentrations were interpolated from a sodium nitrite standard curve (0–100 μM; R^2 > 0.99).

[3] = tested on: IL-1β expression in RAW 264.7 cells; test: LPS-induced IL-1β expression by real time PCR; type: cell-based, mouse; conditions: RAW 264.7, 0.3–10 μM, LPS 24 h
Experimental: (§1) RAW 264.7 cells (2 × 10^6 cells) were seeded into 30 mm petri dishes. After the cells adhered to the dishes for 2 h, compound 10 at concentrations of 0.3, 1, 3, and 10 μM was added, and the cells were cultured in an incubator at 37 °C for 2 h. Then, 100 ng/mL of LPS was added and the cells were co-cultured for 24 h. The cells were collected into 1.5 mL EP tubes, and total RNA was extracted using an RNA extraction kit. Then, the concentration of the total RNA was determined with a nucleic acid quantifier, and the RNA was reverse transcribed into the corresponding cDNA.
(§2) According to the operation procedures of the rapid reverse transcription kit, 1 μg of total RNA and 1 μL of dNTP Mixture were first added into a PCR tube. Then, RNase-free dH2O was added until the total volume of the solution reached 10 μL. After mixing evenly, the mixture was incubated at 65 °C for 5 min and then immediately placed on ice for ice-bathing. Subsequently, 4 μL of 5 × PrimeScript® Buffer, 0.5 μL of RNase Inhibitor (40 U/μL), 1 μL of PrimeScript® RTase (200 U/μL), and 4.5 μL of RNase Free dH2O were added to make the entire solution system reach 20 μL. […]
(§3) The reaction system mixture was prepared using a real-time quantitative PCR kit. […]

[4] = tested on: TNF-α expression in RAW 264.7 cells; test: LPS-induced TNF-α expression by real time PCR; type: cell-based, mouse; conditions: RAW 264.7, 0.3–10 μM, LPS 24 h
Experimental: as §1, §2, §3

[5] = tested on: iNOS mRNA expression in RAW 264.7 cells; test: LPS-induced iNOS mRNA expression by RT-qPCR; type: cell-based, mouse; conditions: RAW 264.7, 0.3–10 μM, LPS 24 h
Experimental: as §1, §2, §3

[6] = tested on: nitric oxide production in LPS-stimulated RAW 264.7 macrophages; test: Inhibition of NO production in LPS-stimulated RAW 264.7 macrophages (Griess reaction); type: cell-based, mouse; conditions: re-evaluation within 0.3–10 μM, RAW264.7, LPS
NF-κB p65 = target: T1, NF-κB p65 (Mus musculus, UniProt Q04207); test: DNA-binding activity of p65 (NF-κB p65 ELISA kit); type: cell-based; conditions: 0.3–10 μM, p < 0.01 vs. LPS-only group
T1 construct: endogenous in cells; host or cells: RAW 264.7 murine macrophages, LPS-stimulated
Experimental: To investigate the anti-inflammatory mechanism of compound 10, we quantified its inhibitory effect on the DNA-binding activity of p65 using a TransAM® NF-κB p65 ELISA kit (Ruixin Biotechnology, Guangzhou, China).
RAW 264.7 macrophages were seeded into 60 mm diameter culture dishes at a density of 3.0 × 10^6 cells/dish in complete DMEM and allowed to adhere for 2 h at 37 °C under 5% CO2. Cells were pretreated with Compound 10 (0.3–10 μM in DMSO, final solvent concentration < 0.1%) for 2 h, followed by stimulation with ultrapure LPS for an additional 2 h. The supernatant of cell culture medium was collected, and then NF-κB p65 binding activity of NF-κB in extracts was detected with NF-κB p65 kit (RUIXIN, Quanzhou, China).

[7] = tested on: ROS production in RAW264.7 cells; test: LPS-induced ROS production (DCFH-DA fluorescent probe); type: cell-based, mouse; conditions: RAW264.7, LPS 24 h, concentrations that are not cytotoxic (0.3–10 μM)
Experimental: RAW264.7 cells were seeded into black 96-well plates at a density of 5 × 10^4 cells per well and cultured for 2 h until they adhered to the plate. Subsequently, compound 10 at concentrations of 0.3, 1, 3, and 10 μM was added respectively, and the cells were cultured for another 2 h. Then, 100 ng/mL of LPS was added and the cells were co-cultured in an incubator at 37 °C for 24 h. After that, the production of ROS was detected. The cell culture medium in the 96-well plates was removed, and then […] of the fluorescent probe DCFH-DA solution diluted to 10 μM with serum-free DMEM medium was added. The plates were placed in the cell incubator and incubated in the dark for 30 min. Subsequently, the supernatant was removed and the cells were washed three times with phosphate-buffered saline (PBS). Finally, detection was carried out using a microplate reader (BioTek, Winooski, VT, USA) with an excitation wavelength of 488 nm and an emission wavelength of 525 nm.

[8] = tested on: IL-6 expression in RAW 264.7 cells; test: LPS-induced IL-6 expression by real time PCR; type: cell-based, mouse; conditions: RAW 264.7, 0.3–10 μM, LPS 24 h
Experimental: as §1, §2, §3

[9] = RAW264.7, LPS-stimulated RAW 264.7 macrophages, LPS 100 ng/mL, 24 h

T1 sequence (Q04207 whole entry): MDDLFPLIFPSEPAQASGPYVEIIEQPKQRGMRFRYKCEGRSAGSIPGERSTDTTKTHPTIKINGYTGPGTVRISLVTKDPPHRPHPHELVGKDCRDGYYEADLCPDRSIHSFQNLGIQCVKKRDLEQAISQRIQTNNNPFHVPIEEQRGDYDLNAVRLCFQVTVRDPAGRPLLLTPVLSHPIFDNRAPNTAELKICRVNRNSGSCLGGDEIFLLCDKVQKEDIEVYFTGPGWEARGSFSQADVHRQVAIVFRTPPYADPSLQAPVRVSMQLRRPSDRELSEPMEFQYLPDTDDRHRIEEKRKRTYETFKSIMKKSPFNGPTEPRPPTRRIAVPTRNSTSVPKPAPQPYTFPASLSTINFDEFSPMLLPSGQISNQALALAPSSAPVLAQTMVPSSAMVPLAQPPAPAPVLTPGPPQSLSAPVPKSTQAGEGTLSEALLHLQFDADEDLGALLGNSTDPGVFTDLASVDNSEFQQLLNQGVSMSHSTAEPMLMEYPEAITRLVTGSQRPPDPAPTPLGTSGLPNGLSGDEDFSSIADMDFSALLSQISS

SMILES: C[C@@H]1CC[C@H]2C(C)(C)[C@H](O)CC[C@]2(C)[C@@]12Cc1c(O)cc3c(c1O2)CNC3=O [Compound 15]
cytotoxicity (qualitative) (RAW 264.7 cells): low cytotoxicity

SMILES: COC(=O)CCCN1Cc2c(cc(O)c3c2O[C@]2(C3)[C@H](C)CC[C@H]3C(C)(C)[C@H](O)CC[C@@]32C)C1=O [stachybonoid F]
pIC50 [1]: 4.28

pIC50 [2, 9]: 4.95
SMILES: C[C@@H]1CC[C@H]2C(C)(C)[C@H](O)CC[C@]2(C)[C@@]12Cc1c(O)cc3c(c1O2)CN(C(CCC(=O)O)C(=O)O)C3=O (some centres unmarked) [Compound 13]

pIC50 [2, 9]: 4.58
SMILES: C[C@@H]1CC[C@H]2C(C)(C)[C@H](O)[C@H](O)C[C@]2(C)[C@@]12Cc1c(O)cc3c(c1O2)CN(CCc1ccc(O)cc1)C3=O [Compound 1, Chartarlactam U]

SMILES: CC(=O)O[C@@H]1[C@H](O)C[C@@]2(C)[C@@H](CC[C@@H](C)[C@]23Cc2c(O)cc(CO)c(C=O)c2O3)C1(C)C [stachybotrysin C]
pIC50 [1]: 4.57

SMILES: C[C@@H]1CC[C@H]2C(C)(C)[C@H](O)CC[C@]2(C)[C@@]12Cc1c(O)cc3c(c1O2)COC3=O [stachybotrylactone]
pIC50 [1]: 4.75

pIC50 [2, 9]: 5.36
SMILES: CC(C)CC(C(=O)O)N1Cc2c(cc(O)c3c2O[C@]2(C3)[C@H](C)CC[C@H]3C(C)(C)[C@H](O)[C@H](O)C[C@@]32C)C1=O (some centres unmarked) [Compound 11]
cytotoxicity at 30 μM (RAW 264.7 cells): manifested cytotoxicity
NO production inhibition at 10 μM [2]: potent inhibitory effects
NO-inhibitory effect [2]: significant NO-inhibitory effects

pIC50 [2, 9]: 4.65
SMILES: CC1CCC2C(C)(C)C(O)C(O)CC2(C)C12Cc1c(O)cc3c(c1O2)C(=O)NC3=O (centres unmarked) [Compound 3, Chartarlactam W]

pIC50 [2, 9]: 4.91
DNA-binding activity of p65 (NF-κB p65): significant suppression of p65 binding
SMILES: CCC(C)C(C(=O)O)N1Cc2c(cc(O)c3c2O[C@]2(C3)[C@H](C)CC[C@H]3C(C)(C)[C@H](O)[C@H](O)C[C@@]32C)C1=O (some centres unmarked) [Compound 10]
IL-1β expression [3]: dose-dependent attenuation
cytotoxicity over the tested concentration range (RAW 264.7 cells; up to 30 μM (0.3–30 μM in the abstract, 3 to 30 μM)): no detectable cytotoxicity
TNF-α expression [4]: dose-dependent attenuation
LPS-induced iNOS mRNA expression [5]: significant suppression
NO production inhibition at 10 μM [2]: potent inhibitory effects
inhibitory effect on NO production at 0.3 μM [6]: potent inhibitory effect on NO production
ROS production [7]: capable of inhibiting the production of ROS
IL-6 expression [8]: dose-dependent attenuation

SMILES: CC(C)CC(C(=O)O)N1Cc2c(cc(O)c3c2O[C@]2(C3)[C@H](C)CC[C@H]3C(C)(C)[C@H](O)CC[C@@]32C)C1=O (some centres unmarked) [Compound 12]
cytotoxicity at 30 μM (RAW 264.7 cells): manifested cytotoxicity
pIC50 ([2]; RAW264.7, 24 h): 5.19
NO production inhibition at 10 μM [2]: potent inhibitory effects
NO-inhibitory effect [2]: significant NO-inhibitory effects

SMILES: C[C@@H]1CC[C@H]2C(C)(C)[C@H](O)[C@H](O)C[C@]2(C)[C@@]12Cc1c(O)cc3c(c1O2)CNC3=O [Compound 14]
cytotoxicity (qualitative) (RAW 264.7 cells): low cytotoxicity
